Results as given in US6579545B2, “Coated chewing gum products containing an antigas agent” (WM. Wrigley Jr. Company, priority 2000, dated 2003).

Text: Analysis of a precipitated calcium carbonate having a median particle size of about 5 microns was done before and after being applied as a coating.

O=C([O-])[O-].[Ca+2] [precipitated calcium carbonate, calcium carbonate]
particle size (after preparing a suspension and applying it to a gum pellet for an antacid gum product): 4.9 microns | median particle size (before coating): 5.1 microns
